Values joined by “and” are separate entries in the source; they are usually repeats but may differ in a detail not shown here. Identical values can stand only once. “Also recorded” adds a separate entry of the source. Like-named read-outs stand apart in the source and are kept apart here.
Experiments:
in vitro [1] = conditions: dog, dog plasma
[2] = tested on: other TLR pattern recognition receptors (hTLR3, hTLR4, hTLR5, hTLR7, hTLR8, hTLR9); assay: TLR panel, NF-κB inducible SEAP reporter in HEK293 cells: other TLRs; type: cell-based, human and mouse
Procedure: INNA-006 was assessed for its ability to activate a range of other TLR pattern recognition receptors. These assessments were conducted using both human and mouse TLR panels. These assays detect a secreted embryonic alkaline phosphatase (SEAP) reporter under the control of a promoter which is inducible by NF-κB activation in HEK293 cells. The secreted embryonic alkaline phosphatase (SEAP) reporter is under the control of a promoter inducible by the transcription factor NF-κB. This reporter gene allows the monitoring of signaling through the TLR, based on the activation of NF-κB. In a 96-well plate (200 μL total volume) containing the appropriate cells (50,000-75,000 cells/well), 20 μL of the test article or the positive control ligand is added to the wells. The media added to the wells is designed for the detection of NF-κB induced SEAP expression. After a 16-24 hr incubation the optical density (OD) is read at 650 nm on a Molecular Devices SpectraMax 340PC absorbance detector. • hTLR2: HKLM (heat-killed Listeria monocytogenes) at 1×10^8 cells/mL • hTLR3: Poly(I:C) HMW at 1 μg/mL • hTLR4: E. coli K12 LPS at 100 ng/mL • hTLR5: S. typhimurium flagellin at 100 ng/mL • hTLR7: CL307 at 1 μg/mL • hTLR8: CL075 at 1 μg/mL • hTLR9: CpG ODN2006 at 1 μg/mL.

[3] = tested on: A/Udorn/307/72 (H3N2) influenza virus; type: in vivo, C57BL/6 mice
in vitro [4] = conditions: cynomolgus monkey, hepatocytes
[5] = Dynamic light scattering (DLS) particle size; type: physicochemical; conditions: within 2 hours of sample preparation
Procedure: INNA-011 and INNA-006 form micelle-type aggregates in both aqueous and organic solutions. The size distribution and polydispersity of particles of INNA-006 and INNA-011 were determined by dynamic light scattering (DLS) and size exclusion chromatography (University of Melbourne).
As the concentration of INNA-006 is increased, material with a particle size centered on a radius of ˜7 nm accumulates within 2 hours of the sample preparation as measured by DLS. This accumulation starts at a concentration of ˜16 μM, (0.02 mg/ml, represents the 0.16 nmole/10 μl curve) and is clearly discernable at 125 μM (0.17 mg/ml, represents the 1.25 nmole/10 μl curve) and above.
At the concentrations of 2 mM to […] particle sizes (7.4-7.7 nm) were larger than that observed with INNA-006 and additional species outside of this main sequence were more ordered and less dominant.

human TLR2 = molecular target: T1, human TLR2 (Homo sapiens, UniProt O60603); assay: NF-kB activation in HEKBlue-hTLR2 cell line (SEAP reporter); type: cell-based
T1 construct: host or cells: HEK-Blue hTLR2 (HEK293-derived) cell line
Procedure: The potency of the compounds as activators of human and mouse TLR-2s was tested in an in vitro assay. The assay assesses NF-kB activation in the HEKBlue-mTLR-2 cell line. These cells have been stably transfected with mouse TLR-2 and express TLR-1 and TLR-6 endogenously at sufficient levels to allow for fully-functional TLR-1/2 and TLR-2/6 activation.
(§1) Toll-Like Receptor 2 (TLR2) stimulation is tested by assessing NF-kB activation in the HEKBlue-hTLR2 cell line. These cells have been stably transfected with human TLR2 and express TLR1 and TLR6 endogenously at a level sufficient to allow for fully-functional TLR1/2 and TLR2/6 activation. The activity of the test articles are tested on human TLR2 as potential agonists. The test articles are evaluated at seven concentrations and compared to control ligands. These steps are performed in triplicate.
as §1, with “stimulation was” for “stimulation is”, “assessing N-kB” for “assessing NF-kB”, “the HEK-Blue hTLR2” for “the HEKBlue-hTLR2”, “articles were” for “articles are”, “control ligands (see list below).” for “control ligands.”, “steps were” for “steps are”
The secreted embryonic alkaline phosphatase (SEAP) reporter is under the control of a promoter inducible by the transcription factor NF-κB. This reporter gene allows the monitoring of signaling through the TLR, based on the activation of NF-κB. In a 96-well plate (200 μL total volume) containing the appropriate cells (50,000-75,000 cells/well), 20 μL of the test article or the positive control ligand is added to the wells. The media added to the wells is designed for the detection of NF-κB induced SEAP expression. After a 20 hour incubation the optical density (OD) is read at 650 nm on a Molecular Devices SpectraMax 340PC absorbance detector.

in vitro [6] = conditions: dog, hepatocytes
[7] = tested on: cytokines/chemokines (IL-6, KC, MCP-1, RANTES); assay: Cytokine/chemokine levels in nasal turbinates, trachea, lungs and sera (cytometric bead array); type: in vivo, C57BL/6 mice
in vitro [8] = conditions: rat, rat plasma
in vitro [9] = conditions: rat, hepatocytes
[10] = 3-dose regime, 0.5 and 0.05 nmole doses

T1 sequence (O60603 21-784): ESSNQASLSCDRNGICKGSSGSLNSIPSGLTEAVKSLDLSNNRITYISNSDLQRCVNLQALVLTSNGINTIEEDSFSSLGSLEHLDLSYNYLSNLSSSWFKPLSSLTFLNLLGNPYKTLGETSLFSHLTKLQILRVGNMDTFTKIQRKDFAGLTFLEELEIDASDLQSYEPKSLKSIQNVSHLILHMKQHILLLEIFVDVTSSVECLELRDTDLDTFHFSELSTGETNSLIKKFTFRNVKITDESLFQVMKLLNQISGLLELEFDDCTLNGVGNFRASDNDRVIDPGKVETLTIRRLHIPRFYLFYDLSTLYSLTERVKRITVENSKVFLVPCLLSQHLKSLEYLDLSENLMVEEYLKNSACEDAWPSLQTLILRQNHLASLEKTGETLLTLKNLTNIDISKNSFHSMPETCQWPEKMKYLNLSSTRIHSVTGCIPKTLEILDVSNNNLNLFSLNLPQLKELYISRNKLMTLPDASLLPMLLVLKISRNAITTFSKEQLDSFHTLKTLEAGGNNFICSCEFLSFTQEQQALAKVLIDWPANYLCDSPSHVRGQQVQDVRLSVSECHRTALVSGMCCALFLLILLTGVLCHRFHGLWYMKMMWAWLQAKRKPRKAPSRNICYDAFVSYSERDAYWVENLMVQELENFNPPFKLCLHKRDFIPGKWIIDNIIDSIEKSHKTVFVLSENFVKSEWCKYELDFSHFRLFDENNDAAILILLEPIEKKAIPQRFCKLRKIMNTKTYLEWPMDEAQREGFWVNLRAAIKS
T1 sequence (Q9Y2C9 32-796 partner): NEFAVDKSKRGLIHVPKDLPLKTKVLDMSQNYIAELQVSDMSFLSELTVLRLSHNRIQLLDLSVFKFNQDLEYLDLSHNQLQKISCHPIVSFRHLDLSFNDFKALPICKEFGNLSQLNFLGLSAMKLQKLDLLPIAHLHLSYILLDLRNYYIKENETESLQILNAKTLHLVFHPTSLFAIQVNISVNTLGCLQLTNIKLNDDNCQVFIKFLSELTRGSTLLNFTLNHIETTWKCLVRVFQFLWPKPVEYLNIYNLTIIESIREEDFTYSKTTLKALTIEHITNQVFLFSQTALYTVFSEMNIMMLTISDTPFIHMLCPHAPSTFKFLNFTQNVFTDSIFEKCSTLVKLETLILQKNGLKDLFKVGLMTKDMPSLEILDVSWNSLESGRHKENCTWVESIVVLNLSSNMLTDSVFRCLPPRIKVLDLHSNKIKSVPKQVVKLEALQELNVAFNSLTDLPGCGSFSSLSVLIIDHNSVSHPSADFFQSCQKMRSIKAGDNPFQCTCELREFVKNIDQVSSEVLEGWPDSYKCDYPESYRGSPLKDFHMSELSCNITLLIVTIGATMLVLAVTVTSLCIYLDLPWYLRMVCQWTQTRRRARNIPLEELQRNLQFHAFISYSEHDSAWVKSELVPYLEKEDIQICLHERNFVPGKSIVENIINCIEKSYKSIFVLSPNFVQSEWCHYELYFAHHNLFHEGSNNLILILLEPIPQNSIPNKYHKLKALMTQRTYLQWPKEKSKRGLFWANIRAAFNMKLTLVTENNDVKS

Structure (SMILES): CCC(=O)OCC(CSCC(N)C(=O)NC(CO)C(=O)NCCOCC(=O)NCC(N)=O)OC(=O)CC (stereo not drawn) [INNA-006, Pam2Cys-Ser-PEG]
- half-life (in vitro [1]): 8.9 h
- activation of any other TLR tested [2]: no activation
- progression of influenza virus to the lungs (lung viral titre) ([3]; 0.005 nmoles intranasal 1 day prior to 500 pfu Udorn challenge, n=5, day 5 (Example 4)): partial inhibition
- progression of influenza virus to the lungs (lung viral titre) ([3]; 0.05 nmoles intranasal 1 day prior to challenge, n=10 (Example 5)): partial inhibition
- progression of influenza virus to the lungs (lung viral titre) ([3]; 0.1 nmoles intranasal 1 day prior to 500 pfu Udorn challenge, n=5, day 5 (Example 4)): significantly inhibited
- progression of influenza virus to the lungs (lung viral titre) ([3]; 0.5 nmoles intranasal 1 day prior to challenge, n=10 (Example 5)): significantly inhibited
- progression of influenza virus to the lungs (lung viral titre) ([3]; 5 nmoles intranasal 1 day prior to 500 pfu Udorn challenge, n=5, day 5 (Example 4)): significantly inhibited
- progression of influenza virus to the lungs (lung viral titre) ([3]; 5 nmoles intranasal 1 day prior to challenge, n=10 (Example 5)): significantly inhibited
- times more effective than INNA-003 at inhibiting viral progression ([3]; 3 doses of 0.5 nmoles (Example 7, FIG. 10)): 10-100 times
- progression of influenza virus to the lungs (lung viral titre) ([3]; 3 doses of 0.5 nmoles (days 0, 2, 4), challenge one day after third dose (Example 7)): major reduction in viral load in the lungs; also recorded: significant reduction in dissemination of virus to lungs; also recorded: significantly inhibited
- times more effective than INNA-003 or Pam2Cys-SK4 at inhibiting viral progression ([3]; single dose 1 day prior to challenge (Example 4)): 10-100 times
- half-life at 0.5 μM (in vitro [4]): > 6.25 h
- hepatocyte CLint at 0.5 μM (in vitro [4]): < 2 µL/min/1e6 cells
- concentration at which accumulation of ~7 nm particles starts ([5]; DLS): ~16 µM
- particle size (radius) by DLS ([5]; INNA-011 at 2 mM to 8 pM in PBS): around 7 nm
- TLR2 activation, potency in words (human TLR2; Example 2): significantly more potent than INNA-003
- EC50 (human TLR2; agonist activity against Human TLR-2 in vitro): 7.7 pM
- half-life at 0.5 μM (in vitro [6]): > 6.25 h
- hepatocyte CLint at 0.5 μM (in vitro [6]): < 2 µL/min/1e6 cells
- fold lower IL-6 in nasal turbinates, 3 doses compared to single dose ([7]; 0.5 nmoles): approximately 25 fold
- cytokine/chemokine levels in nasal turbinates, lungs and sera, 3 repeat doses compared to single dose ([7]; 0.5 or 0.05 nmoles): marked decrease in cytokine/chemokine levels
- level of KC in lungs ([7]; 3-dose regime (both 0.5 and 0.05 nmole doses)): ~14 pg/mL and ~16.3 pg/mL
- fold increase of KC secretion in lungs compared to INNA-003 [7, 10]: 2 fold
- fold increase of KC secretion in lungs compared to saline control [7, 10]: 3 fold
- level of IL-6 in nasal turbinates ([7]; 3 doses (0.5 nmoles), 24 hours after last dose): 15 pg/mL
- fold increase of KC in nasal turbinates versus saline ([7]; mouse, in vivo): 2 fold
- level of KC in nasal turbinates ([7]; mouse, in vivo): ~83 pg/mL
- inflammatory cytokines after pre-treatment and Udorn challenge ([7]; pre-treatment with up to three doses followed by challenge): no detectable change in any of the inflammatory cytokines measured
- KC in the lungs compared to saline control ([7]; single dose): no significance
- RANTES in nasal turbinates compared to INNA-003 ([7]; single dose 0.5 nmoles): increased RANTES secretion
- fold increase in IL-6 levels in nasal turbinates versus saline ([7]; single dose 0.5 nmoles): 98 fold
- level of IL-6 in nasal turbinates ([7]; single dose (0.5 nmoles), 24 hours after dose): ~395 pg/mL
- cytokine/chemokine profile in nasal turbinates compared to saline (IL-6, KC & MCP-1) ([7]; single or 3 repeat doses, 0.5 or 0.05 nmoles, dose-dependent): increase in proinflammatory cytokines and chemokines
- half-life (in vitro [8]): 5.7 h
- half-life at 0.5 μM (in vitro [9]): > 6.25 h
- hepatocyte CLint at 0.5 μM (in vitro [9]): < 2 µL/min/1e6 cells

From patent US12195557B2, “Optimised compounds” (AXELIA ONCOLOGY PTY LTD, priority 2017, dated 2025)
